We go through 14 molecules from patent US20240217928A1, “HALOACETHYDRAZIDES USEFUL AS AEP INHIBITORS” (Hoffmann-La Roche Inc., priority 2021, published 2024).

pIC50: −log10 of the molar value.

In one assay the target is T1, rhlegumain (hLGMN(V18-Y433)_VD-8xHis-S2-r) (Homo sapiens, UniProt Q99538).
T1 construct: construct name: hLGMN(V18-Y433)_VD-8xHis-S2-r; VD linker (C); 8xHis (C); made in house
T1 sequence (Q99538 26-323 limits assumed): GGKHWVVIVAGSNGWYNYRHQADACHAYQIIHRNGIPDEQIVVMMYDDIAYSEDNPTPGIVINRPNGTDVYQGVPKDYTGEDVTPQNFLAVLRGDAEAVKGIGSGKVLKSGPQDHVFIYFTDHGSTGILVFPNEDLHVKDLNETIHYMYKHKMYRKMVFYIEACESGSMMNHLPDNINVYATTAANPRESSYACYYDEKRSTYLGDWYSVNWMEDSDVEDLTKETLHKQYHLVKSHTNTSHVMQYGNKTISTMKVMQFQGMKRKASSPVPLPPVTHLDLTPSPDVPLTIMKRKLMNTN
The assay can be described thus: AEP activity enzymatic assay. Format: biochemical.
Conditions: not given
How it is done:
Prior to the assay measurements, rhlegumain (in house, construct name: hLGMN(V18-Y433)_VD-8xHis-S2-r) is activated by diluting it from 1.1 mg/ml to 0.1 mg/ml (11-fold) in activation buffer (50 mM sodium acetate, 100 mM NaCl, pH 4.0) and incubation at 37° C. for 2 h. The activated enzyme solution stock is stored at −80° C.
Usually pIC50 stands for the negative decadic logarithm of the IC50, by convention in mol/L. As for `NC(=O)CN(NC(=O)[C@@H]1CCCN1C(=O)C(F)(F)c1ccccc1)C(=O)CF` [Example 1, 2-[(2-Fluoroacetyl)-[[(2S)-1-(2,2-Difluoro-2-Phenyl-Acetyl)Pyrrolidine-2-Carbonyl]Amino]Amino]Acetamide], the pIC50 was 8.44.

`NC(=O)CN(NC(=O)[C@@H]1CCCN1C(=O)CCc1ccccc1)C(=O)CF` [Example 2, 2-[(2-Fluoroacetyl)-[[(2S)-1-(3-Phenylpropanoyl)Pyrrolidine-2-Carbonyl]Amino]Amino]Acetamide] showed a pIC50 of 7.14.

As for `NC(=O)CN(NC(=O)[C@@H]1CCCN1C(=O)C1(c2ccccc2)CCC1)C(=O)CF` [Example 3], the pIC50 is 8.44.

For the molecule `NC(=O)CN(NC(=O)[C@@H]1CCCN1C(=O)C1(c2ccc(Cl)cc2)CCC1)C(=O)CF` [Example 4, 2-[(2-Fluoroacetyl)-[[(2S)-1-[1-(4-Chlorophenyl)Cyclobutanecarbonyl]Pyrrolidine-2-Carbonyl]Amino]Amino]Acetamide], the pIC50 is 8.89.

The molecule `NC(=O)CN(NC(=O)[C@@H]1CCCN1C(=O)Cc1ccccc1)C(=O)CF` [Example 5, 2-[(2-Fluoroacetyl)-[[(2S)-1-(2-Phenylacetyl)Pyrrolidine-2-Carbonyl]Amino]Amino]Acetamide] had a pIC50 of 7.65.

In the case of `NC(=O)CN(NC(=O)[C@@H]1CCCN1C(=O)C1(c2ccc(Cl)cc2)CC1)C(=O)CF` [Example 6, 2-[(2-Fluoroacetyl)-[[(2S)-1-[1-(4-Chlorophenyl)Cyclopropanecarbonyl]Pyrrolidine-2-Carbonyl]Amino]Amino]Acetamide], the pIC50 is 8.57.

`NC(=O)CN(NC(=O)[C@@H]1CCCN1S(=O)(=O)c1ccccc1)C(=O)CF` [Example 7, 2-[(2-Fluoroacetyl)-[[(2S)-1-(Benzenesulfonyl)Pyrrolidine-2-Carbonyl]Amino]Amino]Acetamide] gave a pIC50 of 7.21.

For the molecule `NC(=O)CN(NC(=O)[C@@H]1CCCN1C(=O)C1(c2ccccc2)CC1)C(=O)CF` [Example 8, 2-[(2-Fluoroacetyl)-[[(2S)-1-(1-Phenylcyclopropanecarbonyl)Pyrrolidine-2-Carbonyl]Amino]Amino]Acetamide], the pIC50 was 8.30.

Turning to `NC(=O)CN(NC(=O)[C@@H]1CCCN1S(=O)(=O)Cc1ccccc1)C(=O)CF` [Example 9, 2-[(2-Fluoroacetyl)-[[(2S)-1-Benzylsulfonylpyrrolidine-2-Carbonyl]Amino]Amino]Acetamide], the pIC50 is 7.08.

In the case of `NC(=O)CN(NC(=O)[C@@H]1CCCN1S(=O)(=O)CCc1ccccc1)C(=O)CF` [Example 10, 2-[(2-Fluoroacetyl)-[[(2S)-1-(2-Phenylethylsulfonyl)Pyrrolidine-2-Carbonyl]Amino]Amino]Acetamide], the pIC50 was 7.47.

As to `C#Cc1ccc(C2(C(=O)N3CCC[C@H]3C(=O)NN(CC(N)=O)C(=O)CF)CC2)cc1` [Example 11, 2-[(2-Fluoroacetyl)-[[(2S)-1-[1-(4-Ethynylphenyl)Cyclopropanecarbonyl]Pyrrolidine-2-Carbonyl]Amino]Amino]Acetamide], the pIC50 is 8.92.

`C#CCOc1ccc(C2(C(=O)N3CCC[C@H]3C(=O)NN(CC(N)=O)C(=O)CF)CC2)cc1` [Example 14, 2-[(2-Fluoroacetyl)-[[(2S)-1-[1-(4-Prop-2-Ynoxyphenyl)Cyclopropanecarbonyl]Pyrrolidine-2-Carbonyl]Amino]Amino]Acetamide] had a pIC50 of 8.85.

Still in this assay, the particulars now being: 0.5 nM legumain, 0.5 uM Z-Ala-Ala-Asn-Rh110-(D-Pro), pH 5.8, 30 min preincubation at 25° C.; read-out: IC50 (AEP).
Consider `COc1ccc(-c2ccc(S(=O)(=O)N3CCC[C@H]3C(=O)NN(CC(N)=O)C(=O)CF)cc2)cc1` [Example 13, 2-[(2-Fluoroacetyl)-[[(2S)-1-[4-(4-Methoxyphenyl)Phenyl]Sulfonylpyrrolidine-2-Carbonyl]Amino]Amino]Acetamide], for which the pIC50 is 8.82.

Turning to `COc1ccc(-c2ccc(S(=O)(=O)N3CCC[C@H]3C(=O)NN(CC(N)=O)C(=O)CCl)cc2)cc1` [Example 17, 2-[(2-Chloroacetyl)-[[(2S)-1-[4-(4-Methoxyphenyl)Phenyl]Sulfonylpyrrolidine-2-Carbonyl]Amino]Amino]Acetamide], the pIC50 is 9.52.
